Data on one compound can be found in PMC10174618, “Monoterpenoid aryl hydrocarbon receptor allosteric antagonists protect against ultraviolet skin damage in female mice” (Nature Communications, 2023).

What all share (assay): biochemical
Common to all, as to parameters: KINOMEscan scanMAX active site-directed competition binding assay, percent of control, 468 kinases
What all share (conditions): competition binding, percent of control

The target of one experiment is T1, NDR1 (Homo sapiens, UniProt Q15208).
T1 construct: gene STK38
Summed up: (§1)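 Single-concentration screen (100 μM S-carvone) in a competition binding panel of 468 human kinases (KINOMEscan scanMAX); results given as percent of control, hit cutoff 35%.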

Another experiment deals with KIT(D816H) (Homo sapiens, UniProt P10721, D816H). An outline of the steps: as §1
The target in experiment [1] is T2, ABL1(F317L)-nonphosphorylated (Homo sapiens, UniProt P00519, F317L).
T2 construct: nonphosphorylated
Summed up:
as §1

Another experiment addresses T3, CDK4-cyclinD3 (Homo sapiens, UniProt P11802).
T3 construct: cyclinD3
An outline of the steps:
as §1

In another experiment the target is NEK9 (Homo sapiens, UniProt Q8TD19). Summed up:
as §1

A further experiment concerns the target CSNK1G3 (Homo sapiens, UniProt Q9Y6M4). Summed up:
as §1

For another experiment, the target named is CAMKK1 (Homo sapiens, UniProt Q8N5S9). An outline of the steps:
as §1

In a further experiment the target is CAMK1G (Homo sapiens, UniProt Q96NX5). Summed up:
as §1

A further experiment has as its target T4, MST3 (Homo sapiens, UniProt Q9Y6E0).
T4 construct: gene STK24
An outline of the steps:
as §1

For a further experiment, the target named is PIK3CA (Homo sapiens, UniProt P42336). An outline of the steps: as §1
The target of a further experiment is T5, ABL1-phosphorylated (Homo sapiens, UniProt P00519).
T5 construct: phosphorylated
Summed up:
as §1

The target in the next experiment is PIM2 (Homo sapiens, UniProt Q9P1W9). Summed up: as §1
Another experiment deals with T6, NIM1 (Homo sapiens, UniProt Q8IY84).
T6 construct: gene NIM1K
An outline of the steps: as §1

For the next experiment, the target named is EGFR(L747-T751del,Sins) (Homo sapiens, UniProt P00533, DEL747-750/T751S). An outline of the steps:
as §1

The target in a further experiment is STK35 (Homo sapiens, UniProt Q8TDR2). An outline of the steps:
as §1

For another experiment, the target named is T7, AMPK-alpha1 (Homo sapiens, UniProt Q13131).
T7 construct: gene PRKAA1
An outline of the steps: as §1

Another experiment concerns the target AKT3 (Homo sapiens, UniProt Q9Y243). An outline of the steps:
as §1

Another experiment addresses PIK3CA(Q546K) (Homo sapiens, UniProt P42336, Q546K). Summed up:
as §1

The next experiment addresses T8, ARK5 (Homo sapiens, UniProt O60285).
T8 construct: gene NUAK1
Summed up:
as §1

The target of the next experiment is KIT(V559D) (Homo sapiens, UniProt P10721, V559D). An outline of the steps: as §1
The target of a further experiment is PIK3CA(M1043I) (Homo sapiens, UniProt P42336, M1043I). An outline of the steps:
as §1

T2 sequence (P00519 whole entry F317L): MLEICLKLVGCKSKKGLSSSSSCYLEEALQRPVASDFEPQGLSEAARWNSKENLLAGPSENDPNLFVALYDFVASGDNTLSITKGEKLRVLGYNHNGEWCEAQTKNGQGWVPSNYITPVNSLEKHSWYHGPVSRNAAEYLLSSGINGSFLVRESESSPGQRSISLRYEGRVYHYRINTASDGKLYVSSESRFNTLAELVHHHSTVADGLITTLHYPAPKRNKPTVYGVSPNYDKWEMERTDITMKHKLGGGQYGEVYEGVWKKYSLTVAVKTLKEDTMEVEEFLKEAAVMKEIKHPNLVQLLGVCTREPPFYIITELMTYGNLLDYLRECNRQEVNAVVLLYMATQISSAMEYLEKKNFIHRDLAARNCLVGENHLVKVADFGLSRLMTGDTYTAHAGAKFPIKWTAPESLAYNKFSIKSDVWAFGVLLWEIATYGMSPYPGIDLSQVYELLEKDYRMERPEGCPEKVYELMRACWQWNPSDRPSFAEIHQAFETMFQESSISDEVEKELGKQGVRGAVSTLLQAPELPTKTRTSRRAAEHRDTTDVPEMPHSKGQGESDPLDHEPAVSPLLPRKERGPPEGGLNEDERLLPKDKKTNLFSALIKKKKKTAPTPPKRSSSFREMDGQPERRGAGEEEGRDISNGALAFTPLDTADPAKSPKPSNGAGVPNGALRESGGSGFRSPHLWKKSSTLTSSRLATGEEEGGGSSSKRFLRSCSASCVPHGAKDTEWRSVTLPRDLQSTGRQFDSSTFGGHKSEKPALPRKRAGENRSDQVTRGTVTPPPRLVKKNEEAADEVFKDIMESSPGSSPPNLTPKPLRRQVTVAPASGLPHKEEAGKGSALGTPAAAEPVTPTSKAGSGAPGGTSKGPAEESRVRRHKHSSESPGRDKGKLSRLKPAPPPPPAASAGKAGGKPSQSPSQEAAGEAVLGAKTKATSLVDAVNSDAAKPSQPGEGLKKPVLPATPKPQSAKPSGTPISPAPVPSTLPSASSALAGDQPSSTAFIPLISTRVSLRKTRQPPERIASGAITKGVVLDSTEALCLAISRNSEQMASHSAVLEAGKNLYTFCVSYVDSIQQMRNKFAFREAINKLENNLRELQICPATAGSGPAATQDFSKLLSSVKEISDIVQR
T1 sequence (Q15208 whole entry): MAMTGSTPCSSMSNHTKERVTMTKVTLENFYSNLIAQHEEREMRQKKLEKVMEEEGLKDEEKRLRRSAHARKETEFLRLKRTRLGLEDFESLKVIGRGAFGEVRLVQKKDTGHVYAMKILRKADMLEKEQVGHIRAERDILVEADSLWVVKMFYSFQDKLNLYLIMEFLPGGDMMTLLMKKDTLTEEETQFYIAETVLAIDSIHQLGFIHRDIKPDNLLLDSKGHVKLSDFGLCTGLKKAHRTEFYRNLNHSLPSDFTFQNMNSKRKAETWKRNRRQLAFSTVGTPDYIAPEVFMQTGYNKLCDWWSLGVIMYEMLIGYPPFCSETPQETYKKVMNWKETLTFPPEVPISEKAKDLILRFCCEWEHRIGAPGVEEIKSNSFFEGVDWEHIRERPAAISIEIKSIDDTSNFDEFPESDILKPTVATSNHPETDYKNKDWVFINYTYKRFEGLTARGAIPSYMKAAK
Chain of EGFR(L747-T751del,Sins) (P00533 with tags, fused parts or gaps DEL747-750/T751S): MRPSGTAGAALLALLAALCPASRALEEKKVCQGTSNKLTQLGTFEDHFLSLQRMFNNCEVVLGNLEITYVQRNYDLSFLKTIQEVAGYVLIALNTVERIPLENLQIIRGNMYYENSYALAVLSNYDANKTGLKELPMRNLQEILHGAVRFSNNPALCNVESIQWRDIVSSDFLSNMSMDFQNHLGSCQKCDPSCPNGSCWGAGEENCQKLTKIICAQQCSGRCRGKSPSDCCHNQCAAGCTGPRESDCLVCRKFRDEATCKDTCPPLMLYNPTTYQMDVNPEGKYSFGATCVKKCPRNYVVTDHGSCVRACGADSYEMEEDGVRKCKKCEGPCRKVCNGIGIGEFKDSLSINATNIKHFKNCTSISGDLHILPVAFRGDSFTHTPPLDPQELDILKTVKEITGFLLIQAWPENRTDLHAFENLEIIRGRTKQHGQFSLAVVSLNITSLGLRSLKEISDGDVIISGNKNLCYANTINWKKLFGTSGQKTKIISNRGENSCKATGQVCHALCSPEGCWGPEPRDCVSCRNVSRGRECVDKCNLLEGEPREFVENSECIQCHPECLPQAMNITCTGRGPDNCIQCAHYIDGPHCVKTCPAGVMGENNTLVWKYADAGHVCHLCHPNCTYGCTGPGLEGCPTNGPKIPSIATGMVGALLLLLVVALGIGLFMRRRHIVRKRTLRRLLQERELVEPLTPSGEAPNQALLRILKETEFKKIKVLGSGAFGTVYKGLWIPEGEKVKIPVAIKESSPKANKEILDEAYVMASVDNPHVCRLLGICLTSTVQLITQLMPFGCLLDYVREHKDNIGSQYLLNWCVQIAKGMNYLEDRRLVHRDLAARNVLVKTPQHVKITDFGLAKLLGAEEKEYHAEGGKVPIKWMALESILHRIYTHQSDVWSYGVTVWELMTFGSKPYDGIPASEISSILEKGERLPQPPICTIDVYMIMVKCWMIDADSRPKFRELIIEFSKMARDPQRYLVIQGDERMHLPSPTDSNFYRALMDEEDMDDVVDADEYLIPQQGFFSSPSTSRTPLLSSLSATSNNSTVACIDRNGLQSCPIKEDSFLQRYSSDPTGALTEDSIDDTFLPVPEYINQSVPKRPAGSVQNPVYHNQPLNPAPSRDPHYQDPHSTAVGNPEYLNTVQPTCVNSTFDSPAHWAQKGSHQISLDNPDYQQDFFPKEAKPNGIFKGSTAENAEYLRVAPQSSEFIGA
T3 sequence (P11802 whole entry): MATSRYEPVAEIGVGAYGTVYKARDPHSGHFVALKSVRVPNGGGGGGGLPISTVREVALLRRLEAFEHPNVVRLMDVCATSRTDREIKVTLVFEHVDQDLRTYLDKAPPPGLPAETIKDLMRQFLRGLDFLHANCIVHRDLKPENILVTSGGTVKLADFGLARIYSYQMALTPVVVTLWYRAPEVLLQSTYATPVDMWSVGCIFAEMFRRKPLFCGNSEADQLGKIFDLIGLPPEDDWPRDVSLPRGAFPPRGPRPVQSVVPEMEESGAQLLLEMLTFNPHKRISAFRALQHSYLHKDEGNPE
T3 sequence (P30281 whole entry partner): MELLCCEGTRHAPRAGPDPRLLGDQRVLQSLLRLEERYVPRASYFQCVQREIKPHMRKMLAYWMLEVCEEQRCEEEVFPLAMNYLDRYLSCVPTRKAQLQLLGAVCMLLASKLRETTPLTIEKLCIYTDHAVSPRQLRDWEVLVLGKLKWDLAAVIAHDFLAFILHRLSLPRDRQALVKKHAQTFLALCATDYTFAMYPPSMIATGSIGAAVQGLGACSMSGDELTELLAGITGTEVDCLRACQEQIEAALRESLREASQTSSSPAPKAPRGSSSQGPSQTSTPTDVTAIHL
Chain of KIT(V559D) (P10721 whole entry V559D): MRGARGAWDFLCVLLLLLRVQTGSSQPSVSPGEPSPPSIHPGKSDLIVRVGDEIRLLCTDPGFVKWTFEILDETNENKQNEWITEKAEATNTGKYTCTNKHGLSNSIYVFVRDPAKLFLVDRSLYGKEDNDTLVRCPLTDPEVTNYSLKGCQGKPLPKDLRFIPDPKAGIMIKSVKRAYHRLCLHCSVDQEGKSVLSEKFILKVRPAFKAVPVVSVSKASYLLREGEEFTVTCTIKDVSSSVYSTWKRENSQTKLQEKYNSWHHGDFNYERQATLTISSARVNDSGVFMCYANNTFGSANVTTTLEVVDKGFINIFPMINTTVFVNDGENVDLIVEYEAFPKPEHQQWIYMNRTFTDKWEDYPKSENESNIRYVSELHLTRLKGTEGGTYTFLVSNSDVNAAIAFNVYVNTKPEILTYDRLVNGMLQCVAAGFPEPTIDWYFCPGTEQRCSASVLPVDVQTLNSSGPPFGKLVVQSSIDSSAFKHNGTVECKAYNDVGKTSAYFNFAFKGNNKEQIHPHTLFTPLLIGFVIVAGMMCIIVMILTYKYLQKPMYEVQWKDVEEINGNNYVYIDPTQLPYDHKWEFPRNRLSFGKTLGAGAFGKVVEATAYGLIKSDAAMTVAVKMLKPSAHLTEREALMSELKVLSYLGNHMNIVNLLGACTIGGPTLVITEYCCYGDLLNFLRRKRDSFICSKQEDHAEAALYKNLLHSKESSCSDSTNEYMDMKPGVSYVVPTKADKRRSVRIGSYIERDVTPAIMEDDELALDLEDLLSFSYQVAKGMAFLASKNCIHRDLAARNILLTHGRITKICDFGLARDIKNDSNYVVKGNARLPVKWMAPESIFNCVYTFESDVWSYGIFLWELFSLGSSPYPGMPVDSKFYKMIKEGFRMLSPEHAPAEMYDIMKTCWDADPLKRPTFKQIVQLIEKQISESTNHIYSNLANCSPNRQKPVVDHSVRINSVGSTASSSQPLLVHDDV
T6 sequence (Q8IY84 whole entry): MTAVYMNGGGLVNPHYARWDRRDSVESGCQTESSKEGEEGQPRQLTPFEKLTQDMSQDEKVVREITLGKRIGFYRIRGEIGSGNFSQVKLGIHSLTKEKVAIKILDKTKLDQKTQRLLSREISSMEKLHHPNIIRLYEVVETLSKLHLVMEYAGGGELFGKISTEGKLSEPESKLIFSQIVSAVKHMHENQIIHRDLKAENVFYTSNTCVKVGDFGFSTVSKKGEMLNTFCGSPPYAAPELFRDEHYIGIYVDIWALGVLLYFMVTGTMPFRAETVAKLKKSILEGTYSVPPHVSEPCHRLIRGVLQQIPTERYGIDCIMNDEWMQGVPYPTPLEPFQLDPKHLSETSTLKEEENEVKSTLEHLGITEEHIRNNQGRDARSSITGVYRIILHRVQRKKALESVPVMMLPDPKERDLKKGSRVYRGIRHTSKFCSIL
Chain of KIT(D816H) (P10721 whole entry D816H): as the sequence (P10721 whole entry V559D) above, with D559V, D816H counted along it
T5 sequence (P00519 whole entry): as the sequence (P00519 whole entry F317L) above, with L317F counted along it

For `C=C(C)[C@H]1CC=C(C)C(=O)C1` [S-carvone], the remaining binding at 100 µM on NDR1 came to 77%; on KIT(D816H), 46%; in experiment [1] it was 78%; at CDK4-cyclinD3, 86%; at NEK9, 80%; at CSNK1G3, 100%. Also, the remaining binding at 100 µM on CAMKK1 turned out to be 94%; on CAMK1G it was 89%; on MST3, 64%; on PIK3CA, 79%; at ABL1-phosphorylated it was 73%; at PIM2, 86%. Besides, the remaining binding at 100 µM at NIM1 was found to be 65%; at EGFR(L747-T751del,Sins), 78%; at STK35, 92%; on AMPK-alpha1, 89%; on AKT3, 90%; at PIK3CA(Q546K), 83%. Further, the remaining binding at 100 µM turned out to be 100% at ARK5, 89% at KIT(V559D) and 83% on PIK3CA(M1043I).
